Data from PMC2733134, “A novel hydroxyfuroic acid compound as an insulin receptor activator - structure and activity relationship of a prenylindole moiety to insulin receptor activation” (Journal of Biomedical Science, 2009).
Values joined by “and” are separate entries in the source; they are usually repeats but may differ in a detail not shown here. Identical values can stand only once. Like-named read-outs stand apart in the source and are kept apart here. Blank lines part the entries; values can stand above or below the molecule they belong to.

Assays:
[1] = target: T1, human insulin receptor (Homo sapiens, UniProt P06213); test: Insulin receptor activation assay (CHO cells overexpressing human insulin receptor, Ab-3 capture, tyrosine kinase activity); format: cell-based; settings: for % activation, tyrosine kinase activity compared to 10 nM insulin stimulation (Study 1) / % activation, tyrosine kinase activity compared to 10 nM insulin stimulation (Study 2): test concentration 100 μM; for Study 1, cpm, phosphoryl incorporation by tyrosine kinase activities / Study 2, cpm, phosphoryl incorporation by tyrosine kinase activities: hydroxyfuroic acid compounds 100 μM, insulin 10 nM
T1 construct: expressed in transfected cells; host or cells: CHO cells (gift of Dr. Richard Roth, Stanford University)
Protocol: The insulin receptor activation assay is based on the assay described by Zhang et al. with minor modifications. Briefly, approximately 100,000 CHO cells overexpressing human recombinant insulin receptor were suspended in 100 μl of Ham's F-12 medium containing 10% fetal bovine serum (FBS) and seeded into each well of a 96-well plate. Cells were incubated at 37°C with 5% CO2 aeration overnight. CHO cells were rinsed with phosphate buffered saline (PBS) 3 times and starved in serum free Ham's F-12 medium for 2 hours before being stimulated with desired concentration of insulin or test compound for 20 minutes. Test compounds were predissolved in DMSO as 100× stocks and serially diluted when necessary. Stimulated CHO cells were then rinsed 3 times with PBS and lysed in 60 μl of lysis buffer. Fifty μl of the lysate was transferred to a well on a Flexible Assay Plate that was precoated with Ab-3 antibody recognizing the β-subunit of insulin receptor. The well was then rinsed 3 times with Tris buffered saline (TBS) containing 0.1% Tween20 and thrown dried by hand before 10 μl of tyrosine kinase reaction mixture (50 mM HEPES, pH7.4, 5 mM MgCl2, 5 mM MnCl2, 1 mg/mL polyGlu/Tyr and 250,000 cpm γ-P^33 ATP/well) was added. The reaction was carried out at 25°C for 40 minutes and terminated by adding 50 μl ice cold 100 mM phosphoric acid. Fifty μl of the stopped reaction mixture was then transferred to an inch square P81 paper. The P81 paper was air dried and then rinsed in Millipore water 5 times to remove leftover radioactive ATP and product ADP. Five mL of scintillation cocktail was added to the paper before the count was read in a liquid scintillation counter.
(§1) The 50% effective or inhibition concentrations were determined with the standard curve analysis of SigmaPlot 8.02. The nonlinear regression equation is y = min+(max-min)/(1+(x/EC50)^Hill Slope) where y is the observed responses; x is the dose concentrations; max and min are approximated by the program automatically during the calculation.
To validate the insulin receptor activation assay, dose response curve of bovine insulin was determined. […] In subsequent experiments, we routinely included 1, 10, and 100 nM insulin as standard reference. […] For simplicity, the efficacies of hydroxyfuroic acid compounds were expressed as percentage of activities comparing to the response provided by 10 nM insulin stimulation in parallel. To distinguish human insulin receptor kinase from other tyrosine kinases in CHO cells, Ab-3, a human insulin receptor β-subunit specific monoclonal antibody, was used to absorb insulin receptor from the CHO cell lysate, so the radioactivity catalyzed by captured tyrosine kinase is attributable to insulin receptor tyrosine kinase activity.

[2] = test system: CHO cells; test: in vitro; format: cell-based; settings: Chinese hamster, 24 h
Protocol: (§2) Approximately 5,000 CHO cells suspended in 100 μl D-MEM containing 10% FBS were seeded in each well of a 96-well plate overnight before the cytotoxicity assay. Test compounds were predissolved as 10× solution in 10% DMSO, 10% ethanol, 80% PBS and 10 μl of this 10× test compound solution were added to each well. After 24 hours incubation, medium containing test compound was removed by aspiration and 3 rinses of PBS. One hundred μl of serum medium was replenished before 20 μl methylthiazolyldiphenyl-tetrazolium bromide (MTT, 2.5 mg/mL) and 1 μl phenazine methosulfate (PMS, 50 μM) was added to each well before a 3-hour further incubation at 37°C. Optical density at 450 nm was measured with an ELISA reader. LC50 is defined as the concentration of compound that causes 50% drop of cell viability in this test.

[3] = in vitro; format: cell-based; settings: Chinese hamster, LC50, cytotoxicity
Protocol: as §2

[4] = target: T2, Recombinant human IGF-1 receptor (Homo sapiens, UniProt P08069); test: IGF-1 receptor tyrosine kinase activity assay; format: biochemical; settings: mid μM of compound, Fig. 6A
T2 construct: purchased R&D systems (Minneapolis, MN)
Protocol: The reaction was carried out at pH7.0 in the presence of 50 mM HEPES, 5 mM MgCl2, 0.01 μg/μl polyGlu/Tyr substrate, 5 mM DTT, 250,000 cpm radioactive ATP, and 0.4 ng/μl IGF-1R tyrosine kinase with a final volume of 100 μl at 37°C for 10 minutes. The IGF-1 receptor tyrosine kinase reaction was carried out with subsaturating concentrations of substrates for better sensitivity to activator or inhibitor influence. Test compound D-410639 was predissolved in DMSO as 20× stock. The reaction was stopped by the addition of 100 μl of 25 mM EDTA (pH8), and 85 μl of the stopped reaction mix was blotted on an inch square P81 paper. P81 paper was air dried before rinsed 5 times in Millipore water to remove non-protein phosphorus. Five mL scintillation cocktail was added to the P81 paper before the counts were read with a liquid scintillation counter.
as §1

[5] = target: T3, FGF receptor 3 (Homo sapiens, UniProt P22607); test: FGF receptor 3 tyrosine kinase activity assay; format: biochemical; settings: Fig. 6C
T3 construct: purchased R&D systems (Minneapolis, MN)
Protocol: The reaction condition of FGF receptor 3 was similar to that of EGF receptor except 0.1 μg/μl polyGlu/Tyr substrate and 0.05 ng/μl FGF-receptor 3 were used instead. All other conditions or processes were the same. The FGF receptor 3 tyrosine kinase reaction was carried out with subsaturating concentrations of substrates for better sensitivity to activator or inhibitor influence.
as §1

[6] = target: T4, EGF receptor (ErbB1) (Homo sapiens, UniProt P00533); test: EGF receptor (ErbB1) tyrosine kinase activity assay; format: biochemical; settings: Fig. 6B
T4 construct: purchased R&D systems (Minneapolis, MN)
Protocol: The reaction condition of EGF receptor (ErbB1) was similar to that of IGF-1 receptor reaction except 0.04 μg/μl polyGlu/Tyr substrate and 0.3 ng/μl EGF receptor (ErbB1) were used, and the reaction time was 15 minutes. All other conditions or processes were the same. The EGF receptor tyrosine kinase reaction was carried out with subsaturating concentrations of substrates for better sensitivity to activator or inhibitor influence.
as §1

[7] = test system: EGF receptor (ErbB1); parameters: method as in Zhang et al. [19]; settings: ref Zhang et al. [19]; cited from earlier work
[8] = test system: db/db mice; parameters: method as in PMID 10320380, PMID 11237209; settings: cited from earlier work
[9] = target: insulin receptor; settings: cited from earlier work
[10] = side by side comparison, Fig. 3, read-out: EC50, insulin receptor tyrosine kinase activation
[11] = read-out: EC50, insulin receptor activation, reported previously

T4 sequence (P00533 25-1210): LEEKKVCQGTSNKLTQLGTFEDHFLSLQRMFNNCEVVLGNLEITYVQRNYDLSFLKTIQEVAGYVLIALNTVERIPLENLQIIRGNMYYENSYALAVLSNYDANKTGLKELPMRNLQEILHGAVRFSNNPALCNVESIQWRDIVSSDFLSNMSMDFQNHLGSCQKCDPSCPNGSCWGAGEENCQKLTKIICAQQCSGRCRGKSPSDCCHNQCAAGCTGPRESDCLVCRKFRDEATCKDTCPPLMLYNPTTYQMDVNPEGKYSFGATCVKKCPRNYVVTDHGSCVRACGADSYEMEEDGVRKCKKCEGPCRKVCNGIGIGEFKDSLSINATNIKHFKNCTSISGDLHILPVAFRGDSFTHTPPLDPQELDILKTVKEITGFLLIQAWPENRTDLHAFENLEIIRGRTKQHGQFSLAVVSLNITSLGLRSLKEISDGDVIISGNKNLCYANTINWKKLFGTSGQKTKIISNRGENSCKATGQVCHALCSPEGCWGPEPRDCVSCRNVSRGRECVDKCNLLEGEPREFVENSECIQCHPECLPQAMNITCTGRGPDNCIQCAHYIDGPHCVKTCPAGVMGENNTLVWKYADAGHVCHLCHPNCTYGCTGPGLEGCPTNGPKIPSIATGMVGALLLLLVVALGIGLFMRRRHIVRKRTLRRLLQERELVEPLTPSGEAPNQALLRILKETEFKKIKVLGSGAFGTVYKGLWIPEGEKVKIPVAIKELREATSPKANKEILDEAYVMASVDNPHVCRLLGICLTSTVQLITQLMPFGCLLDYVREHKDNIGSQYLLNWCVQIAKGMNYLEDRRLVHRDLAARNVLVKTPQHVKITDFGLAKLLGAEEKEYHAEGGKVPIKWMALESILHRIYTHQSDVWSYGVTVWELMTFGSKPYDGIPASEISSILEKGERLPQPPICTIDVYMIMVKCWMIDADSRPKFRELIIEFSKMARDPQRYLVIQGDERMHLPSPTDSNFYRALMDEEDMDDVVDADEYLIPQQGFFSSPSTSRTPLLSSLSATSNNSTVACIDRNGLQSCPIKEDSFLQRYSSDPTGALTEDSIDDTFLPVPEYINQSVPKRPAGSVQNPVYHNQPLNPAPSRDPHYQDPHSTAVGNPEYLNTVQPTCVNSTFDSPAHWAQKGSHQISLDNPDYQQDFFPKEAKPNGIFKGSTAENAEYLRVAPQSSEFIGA
T3 sequence (P22607 23-806): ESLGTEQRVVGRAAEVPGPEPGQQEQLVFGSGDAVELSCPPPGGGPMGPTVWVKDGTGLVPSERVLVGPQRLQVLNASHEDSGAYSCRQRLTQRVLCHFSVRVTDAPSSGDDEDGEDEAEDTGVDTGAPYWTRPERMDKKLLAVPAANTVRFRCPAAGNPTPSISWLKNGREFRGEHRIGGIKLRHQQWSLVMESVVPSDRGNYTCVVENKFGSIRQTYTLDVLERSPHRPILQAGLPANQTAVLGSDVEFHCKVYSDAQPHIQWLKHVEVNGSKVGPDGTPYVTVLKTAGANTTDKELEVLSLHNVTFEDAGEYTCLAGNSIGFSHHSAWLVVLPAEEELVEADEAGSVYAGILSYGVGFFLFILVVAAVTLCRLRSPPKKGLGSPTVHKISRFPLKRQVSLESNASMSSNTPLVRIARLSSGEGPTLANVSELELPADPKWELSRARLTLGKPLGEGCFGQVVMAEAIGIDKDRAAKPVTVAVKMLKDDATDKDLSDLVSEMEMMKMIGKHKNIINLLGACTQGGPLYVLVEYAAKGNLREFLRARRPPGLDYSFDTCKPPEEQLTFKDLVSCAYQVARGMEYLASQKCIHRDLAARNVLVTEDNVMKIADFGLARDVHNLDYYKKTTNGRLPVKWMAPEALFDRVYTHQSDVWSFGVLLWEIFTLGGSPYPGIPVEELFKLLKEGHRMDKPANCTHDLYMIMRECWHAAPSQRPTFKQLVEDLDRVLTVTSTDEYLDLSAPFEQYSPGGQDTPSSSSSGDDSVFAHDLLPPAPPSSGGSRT
T2 sequence (P08069 31-1367): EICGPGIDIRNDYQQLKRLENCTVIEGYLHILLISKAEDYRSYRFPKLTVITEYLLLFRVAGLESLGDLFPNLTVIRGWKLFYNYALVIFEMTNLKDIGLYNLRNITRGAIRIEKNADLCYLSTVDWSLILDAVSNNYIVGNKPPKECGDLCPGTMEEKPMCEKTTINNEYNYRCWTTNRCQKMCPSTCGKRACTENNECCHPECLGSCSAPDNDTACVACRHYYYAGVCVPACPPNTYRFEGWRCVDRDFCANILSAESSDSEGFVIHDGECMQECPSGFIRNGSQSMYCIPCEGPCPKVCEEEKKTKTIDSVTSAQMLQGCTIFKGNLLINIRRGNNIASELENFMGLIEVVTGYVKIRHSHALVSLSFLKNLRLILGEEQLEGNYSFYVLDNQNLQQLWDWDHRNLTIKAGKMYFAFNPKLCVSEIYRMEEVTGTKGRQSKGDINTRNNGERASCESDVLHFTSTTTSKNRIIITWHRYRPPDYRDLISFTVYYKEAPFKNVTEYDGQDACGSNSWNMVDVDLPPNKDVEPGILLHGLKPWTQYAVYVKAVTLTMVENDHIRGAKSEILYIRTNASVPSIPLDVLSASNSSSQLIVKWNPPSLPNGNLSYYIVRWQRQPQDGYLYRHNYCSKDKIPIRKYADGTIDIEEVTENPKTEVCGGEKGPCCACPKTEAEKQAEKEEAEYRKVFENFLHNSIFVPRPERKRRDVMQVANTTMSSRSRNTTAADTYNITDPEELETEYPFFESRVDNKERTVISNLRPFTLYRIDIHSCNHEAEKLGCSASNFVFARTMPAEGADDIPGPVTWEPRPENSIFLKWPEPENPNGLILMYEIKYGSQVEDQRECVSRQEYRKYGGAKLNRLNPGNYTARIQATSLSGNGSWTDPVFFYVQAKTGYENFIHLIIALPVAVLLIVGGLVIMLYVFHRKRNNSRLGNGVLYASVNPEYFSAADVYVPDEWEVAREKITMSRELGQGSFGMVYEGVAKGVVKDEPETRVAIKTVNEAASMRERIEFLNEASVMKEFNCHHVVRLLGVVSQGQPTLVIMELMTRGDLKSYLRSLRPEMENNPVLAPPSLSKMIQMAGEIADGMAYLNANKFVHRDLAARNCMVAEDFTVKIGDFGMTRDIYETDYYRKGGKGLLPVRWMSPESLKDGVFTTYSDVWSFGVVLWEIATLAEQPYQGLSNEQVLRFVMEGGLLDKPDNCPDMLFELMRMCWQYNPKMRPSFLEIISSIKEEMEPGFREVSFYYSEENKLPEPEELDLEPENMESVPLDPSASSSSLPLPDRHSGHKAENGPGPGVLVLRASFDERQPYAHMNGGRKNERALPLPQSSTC

Study 2, cpm, phosphoryl incorporation by tyrosine kinase activities [1]: 659.3 cpm
% activation, tyrosine kinase activity compared to 10 nM insulin stimulation (Study 2) [1]: 40.4%
Molecule: O=C(O)c1oc(C(=O)c2c[nH]c3c(CCCC(CO)CO)cccc23)c(O)c1-c1c[nH]c2ccccc12 [Compound D-410642]

Study 2, cpm, phosphoryl incorporation by tyrosine kinase activities [1]: 799 cpm
% activation, tyrosine kinase activity compared to 10 nM insulin stimulation (Study 2) [1]: 48.9%
Molecule: O=C(O)CCCCc1cccc2c(C(=O)c3oc(C(=O)O)c(-c4c[nH]c5ccccc45)c3O)c[nH]c12 [Compound D-410643]

Study 2, cpm, phosphoryl incorporation by tyrosine kinase activities [1]: 357.3 cpm
% activation, tyrosine kinase activity compared to 10 nM insulin stimulation (Study 2) [1]: 21.9%
Molecule: O=C(O)CCc1cccc2c(C(=O)c3oc(C(=O)O)c(-c4c[nH]c5ccccc45)c3O)c[nH]c12 [Compound D-410644]

EC50 [1, 10]: 39 µM and 38.9 µM
Molecule: Cn1cc(C2=C(O)C(=O)C(c3ccccc3)=C(O)C2=O)c2ccccc21 [compound 2, phenylindolyldihydroxyquinone, reference compound]
CC50 at 24 h [3]: 66.5 µM
EC50 [9, 11]: 0.3 µM

EC50 ([1]; assay validation dose response curve, read-out: EC50 of bovine insulin, insulin receptor activation): ~0.0051 µM
Molecule: bovine insulin: bovine insulin, standard reference of the insulin receptor activation assay
EC50 ([9]; ref Liu et al. [21], read-out: EC50 of insulin, reported): 0.001 µM
Study 1, cpm, phosphoryl incorporation by tyrosine kinase activities [1]: 6250 cpm
Study 2, cpm, phosphoryl incorporation by tyrosine kinase activities [1]: 1632.5 cpm

The next lines start with the molecule.

Molecule: O=C(O)c1oc(C(=O)c2c[nH]c3c(CCCO)cccc23)c(O)c1-c1c[nH]c2ccccc12 [Compound D-410637]
% activation, tyrosine kinase activity compared to 10 nM insulin stimulation (Study 1) [1]: 18.9%

Molecule: O=C(O)c1oc(C(=O)c2c[nH]c3c(CCCCO)cccc23)c(O)c1-c1c[nH]c2ccccc12 [Compound D-410638]
% activation, tyrosine kinase activity compared to 10 nM insulin stimulation (Study 1) [1]: 31.3%

Molecule: O=C(O)c1oc(C(=O)c2c[nH]c3c(CCCCCO)cccc23)c(O)c1-c1c[nH]c2ccccc12 [Compound D-410639]
CC50 [2]: 296 µM
fold less cytotoxic than DMAQ B1 [2]: 128 fold
CC50 at 24 h [3]: ~296 µM
increase of IGF-1 receptor activity from the base line [4]: 60-70%
IC50 [5]: 26.5 µM
insulin receptor activation efficacy relative to 10 nM insulin (range over Study 1 and 2) ([1]; 100 μM, both studies): 72-89%
Study 1, cpm, phosphoryl incorporation by tyrosine kinase activities [1]: 5590 cpm
% activation, tyrosine kinase activity compared to 10 nM insulin stimulation (Study 1) [1]: 89.4%
Study 2, cpm, phosphoryl incorporation by tyrosine kinase activities [1]: 1181 cpm
% activation, tyrosine kinase activity compared to 10 nM insulin stimulation (Study 2) [1]: 72.3%
EC50 [1, 10]: 33 µM and 32.9 µM
IC50 [6]: 1.8 µM

Molecule: O=C(O)c1sc(C(=O)c2c[nH]c3c(CCCCCO)cccc23)c(O)c1-c1c[nH]c2ccccc12 [Compound D-410640]
dose response of insulin receptor activation efficacy ([1]; normalized against 10 nM insulin, Fig. 4): levels off at 50 μM and tapers off by 100 μM

Molecule: CCCCCc1cccc2c(C(=O)c3oc(C(=O)O)c(-c4c[nH]c5ccccc45)c3O)c[nH]c12 [Compound D-410641]
Study 2, cpm, phosphoryl incorporation by tyrosine kinase activities [1]: 792.7 cpm
% activation, tyrosine kinase activity compared to 10 nM insulin stimulation (Study 2) [1]: 48.6%

Molecule: C=CC(C)(C)c1[nH]c2ccccc2c1C1=C(O)C(=O)C(c2c[nH]c3c(CC=C(C)C)cccc23)=C(O)C1=O [DMAQ B1, Demethylasterriquinone B1]
CC50 at 24 h [3]: 2.3 µM
activation potential on EGF receptor (ErbB1) [7]: minor activation potential
effect on blood glucose [8]: lower blood glucose in db/db mice
EC50 [9, 11]: 5 µM

Molecule: diisoprenylindolylasterriquinone [Compound L-767827]
insulin receptor tyrosine kinase activation potential [9]: no insulin receptor tyrosine kinase activation potential
